# Results published in patent US20250120942A1, “BRAIN FUNCTION IMPROVING AGENT” (OSAKA UNIVERSITY, priority 2021, published 2025).
# Key:
# [1] = system: mouse reared in long-term isolation; assay: Novel object recognition test after long-term administration in feed during isolated rearing (Test Example 4); type: in vivo, ddY mouse; settings: MF powdery feed containing 7 mg/100 g for 5 weeks of isolation; FIG. 4(A),(B)
# Experimental: The compound A was orally administered for a long time and the effect of preventing the onset of cognitive dysfunction caused by the long-term isolated rearing was examined.
# 3-weeks-old male ddY mice were purchased from Japan SLC, Inc. The mice were reared in the rearing chamber provided with air conditioner (under the condition that the temperature was 22° C.±1° C., the relative humidity was 50±10%, and the irradiation time was 12 hours (8:00 to 20:00)). The feeding method was that the commercially available MF powdery feed (manufactured by Oriental Yeast Co., ltd.) and tap water were taken freely. […]
# After the long-term rearing of 5 weeks, the object cognitive function was evaluated by the same method as that described in Test Example 3 and the effect of preventing the onset of cognitive dysfunction by administering the compound A during the long-term rearing was examined.
# From the results obtained, the mean (Mean) and the standard error (SEM) were calculated. The significant difference of exploratory time in each group was assessed by using Student's t-test and the significant differences between the control group and Vehicle group and between the administration group of compound A and Vehicle group of Discrimination index were assessed by using Turkey-Kramer's test. […]
# [2] = system: model mouse with the inflammation in brain induced by administering LPS; assay: Forced swimming test in mouse with inflammation in brain induced by LPS (Test Example 5); type: in vivo, C57/BL6J mice; settings: test 24 hours after LPS, FIG. 5
# Description: In regard to the depressive symptoms induced by taking LPS (Lipopolysaccharide), the effect of inhibiting the symptom by oral administration of the compound A was examined. The inflammation in the brain is thought to be one of the main onset factors of depression. It is known that LPS causes the inflammation in the brain by inducing the decrease in brain-derived neurotrophic factor and the variation of the density of dendrite of neuron, activating microglia and the like and induce depressive symptoms. […]
# In 24 hours after the intraperitoneal administration of LPS, forced swimming test was conducted. The depressive symptoms were evaluated by measurement of the immobility time.
# Water (25±1° C.) was put into the acryl resin cylinder (diameter 19 cm, height 25 cm) up to a height of 13 cm. The subject mouse was forced to swim for 6 minutes one by one and the state was video-recorded. […] “The state that the mouse floated on the water surface without moving its limbs and the like” was regarded as immobility and the Immobility Time (sec.) was measured during the test of 6 minutes.
# From the results obtained, the mean (Mean) and the standard error (SEM) were calculated. The significant difference was assessed between the control group and Vehicle group and between the compound A administration group and the […] by using Turkey-Kramer's test. […]
smiles,measurement,setting,value
"O=C1CC[C@H](Cc2cc(O)cc(O)c2)O1 [compound A, (R)-5-(3,5-dihydroxyphenyl)-γ-valerolactone]",onset of cognitive dysfunction caused by long-term isolated rearing stress (exploratory time and Discrimination index),[1],significantly inhibited
same,increase of the immobility time in forced swimming test,"[2]; oral 10 mg/kg and 30 mg/kg groups, LPS 0.5 mg/kg i.p. 30 minutes later",reduced
same,immobility time in forced swimming test,"[2]; oral 30 mg/kg, LPS 0.5 mg/kg i.p.",on the same level as that in the control group
